Source: patent US20130085133A1, “ANTI-VIRAL TREATMENT AND ASSAY TO SCREENFOR ANTI-VIRAL AGENT” (Sourthern Research Institute Office of Commercialization …, priority 2010, published 2013)

Assays:
[1] = cytotoxicity assay (percent viability of HEp-2 cells, Cell Titer-Glo); conditions: human, HEp-2 cells
RSV, Long strain = test: virus titer Reduction (VTR) assay, progeny virus TCID50 in HEp-2 cells; assay type: cell-based, respiratory syncytial virus (RSV); conditions: human respiratory syncytial virus, 48 h; for log reduction at 3 µg/mL: 3 ug/ml compound, read-out: TCID-50 Reduction @ 3 ug/ml; for log reduction at 5 µg/mL: 5 ug/ml compound, read-out: TCID-50 Reduction @ 5 ug/ml; for log reduction at 12 µg/mL: 12 ug/ml compound, read-out: TCID-50 Reduction 12 @ ug/ml; for log reduction at 25 µg/mL: 25 ug/ml compound, read-out: TCID-50 Reduction 25 @ ug/ml; for log reduction at 6 µg/mL: 6 ug/ml compound, read-out: TCID-50 Reduction 6 @ ug/ml; for log reduction at 50 µg/mL: 50 ug/ml compound, read-out: TCID-50 Reduction @ 50 ug/ml
Protocol: Four concentrations of each compound were evaluated (Table 3). Briefly, the four concentrations of test compounds, HEp-2 cells (8×10^3 per well) and RSV, Long strain (MOI=0.9) were plated in 96 well microtiter plates. The plates were incubated for 48 hours. Fifteen (15) μl of 10-fold serial dilution of progeny virus containing medium from respective samples (test compound treated or untreated) was transferred to infect fresh HEp-2 cells (2×10^3 cells per well) in a 384 well format. Plates were incubated for an additional 6 days and luminescence was measured using Cell Titer-Glo reagent (Promega Inc.) to determine cell viability. […] A well showing lesser than 50% cell viability was regarded as positive for virus infection. Four replicates for each virus dilution were analyzed and the number of virus positive wells (out of 4) was plotted versus the dilution. TCID50 was calculated to be the dilution that produced two positive wells out of four using ActivityBase software (IDBS, Inc, Guilford, UK).

[2] = tested on: respiratory syncytial virus (RSV) strain Long; test: microbe, parasite or virus in culture; conditions: human respiratory syncytial virus, HEp-2, 144 h

Structure (SMILES)	CC50 at 6 days [1]	log reduction at 3 µg/mL (RSV, Long strain)	log reduction at 5 µg/mL (RSV, Long strain)	log reduction at 12 µg/mL (RSV, Long strain)	log reduction at 25 µg/mL (RSV, Long strain)	EC50 [2]	log reduction at 6 µg/mL (RSV, Long strain)	log reduction at 50 µg/mL (RSV, Long strain)
O=C(c1cc(Cl)ccc1Cl)N1CCCN(C(=O)c2cc(Cl)ccc2Cl)CC1 [AB00311948]	> 25 µg/mL	3.13	4.64	5.56	5.9	2.32 µg/mL		
Cc1ccccc1C(=O)N1CCCN(C(=O)c2ccccc2C)CC1 [AB00312102]	> 25 µg/mL	1.53		2.68	2.39	3.71 µg/mL	1.86	
O=C(Cc1cccs1)Nc1nc2c(s1)CCCC2 [AB00313042]	> 25 µg/mL	3.56		5.43	6.4	1.89 µg/mL	5.24	
Cc1ccc(S(=O)(=O)Nc2ccc(NC(=O)c3c(F)c(F)c(F)c(F)c3F)cc2)cc1 [AB00314111]	> 25 µg/mL	1		1.41	3.05	6.97 µg/mL	1.01	
COC(=O)C1=C(C)N(Cc2ccccc2)C(=O)NC1c1ccc(OC)c(OC)c1 (stereo not drawn) [AB00318114]	> 25 µg/mL	2.42	4.69	5.56	5.9	3.37 µg/mL		
COCc1cc(C)nc(SCC(=O)Nc2ccccc2C(=O)c2ccccc2)c1C#N [AB00341850]	> 25 µg/mL	1		2.41	2.23	2.19 µg/mL	2.3	
COCc1cc(C)nc(SCC(=O)Nc2ccccc2N2CCOCC2)c1C#N [AB00345103]	> 25 µg/mL	1		3.2	2.86	2.18 µg/mL	1.31	
Cc1cc(C)cc(C(=O)Nc2cccc(NC(=O)c3ccccc3C)c2)c1 [AB00353228]	> 25 µg/mL	1.55		3.42	3.43	9.78 µg/mL	2.87	
Oc1ccc(Nc2nc(-c3ccc(O)cc3)cs2)cc1 [AB00355020]	> 25 µg/mL	1		2.2	2.55	2.77 µg/mL	1.01	
Cc1ccn2cc(-c3cccc(NS(=O)(=O)c4ccccc4)c3)nc2c1 [AB00356285]	> 25 µg/mL	1.14		2.42	3.78	4.04 µg/mL	1.38	
CCOC(=O)Cc1ccc(NC(=O)c2cc(SC)ccc2Cl)cc1 [AB00359299]	> 25 µg/mL	1		1.99	2.83	6.76 µg/mL	1.22	
O=C(Nc1cccc(NC(=O)C23CC4CC(CC(C4)C2)C3)c1)c1ccccc1F [AB00359685]	> 25 µg/mL	1		4.4	4.94	9.42 µg/mL	2.13	
O=C(Cc1c(F)cccc1Cl)Nc1nc2c(s1)CCCC2 [AB00361531]	> 25 µg/mL	1.55		3.09	3.78	0.83 µg/mL	1.74	
COc1ccc(CNCCC(c2ccc(F)cc2)c2ccco2)cc1OC (stereo not drawn) [AB00362846]	> 25 µg/mL	1		2.82	5.48	4.47 µg/mL	1.92	
COc1ccccc1CCNC(=O)c1cc2c(s1)CCCC2 [AB00367930]	> 25 µg/mL	1.82		2.68	6.4	5.77 µg/mL	1.04	
COc1c(C)cccc1C(=O)NCCOc1ccc(Cl)cc1 [AB00368252]	> 25 µg/mL	1		1.72	4.94	9.43 µg/mL	1.3	
O=C(Cc1ccc(Br)cc1)Nc1ccccc1C(=O)O [AB00369287]	> 25 µg/mL	1		4.73	6.57	9.56 µg/mL	3.31	
c1coc(-c2nn3c(Cn4cnc5ccccc54)nnc3s2)c1 [AB00369924]	> 25 µg/mL	1		3.22	2.61	1.71 µg/mL	2.62	
CCOC(=O)C1=C(C)NC(C)=C(C(=O)OCC)C1c1ccc(C#N)cc1 [AB00370331]	> 25 µg/mL	-0.15		1.7	2.89	4.2 µg/mL	1.39	
CSc1ccccc1C(=O)Nc1ccc(S(=O)(=O)Nc2cccc(Cl)c2Cl)cc1 [AB00370446]	> 25 µg/mL	1		3.21	6.57	4.37 µg/mL	1.32	
CC(C)=CCC1=C(O)C(=O)c2ccccc2C1=O [AB00514453]	> 50 µM		0.06	3.33	4.47	7.23 µM		4.87
COCC(C)n1c(SC(C)C(=O)Nc2cc([N+](=O)[O-])ccc2Cl)nc2ccccc2c1=O (stereo not drawn) [AB00725538]	> 50 µM		2.95	4.98	5.56	6.3 µM		5.87
Cc1nn(-c2ccccc2)c(C)c1C(=O)C(=O)Nc1cccc(Cl)c1 [AB00785138]	> 50 µM		1.96	4.24	4.56	7.52 µM		3.87
COCCn1c(SC(C)C(=O)Nc2cccc(C(F)(F)F)c2)nc2ccccc21 (stereo not drawn) [AB00802246]	> 50 µM		2.26	3.98	4.42	9.58 µM		5.87
O=c1cnn([C@@H]2O[C@H](CO)[C@@H](O)[C@H]2O)c(=O)[nH]1 [SRI-7958]	> 50 µM		3.58	5.98	5.56	2.4 µM		5.87
